Test results as given in patent publication US11529323B2 (priority 2017, dated 2022).

Assays:
Format in all cases: in vivo, mouse
[1] = test system: C-26 colon adenocarcinoma cachexia model; test: Combined androgen and AR-42 study (Study 3), C-26 model
Protocol: These studies were performed as previously described (Tseng Y C, et al. J Natl Cancer Inst. 2015 107(12):djv274) with modifications. Tumors were established in the right flank by subcutaneous injection of C-26 cells (0.5×10^6 cells in 0.1 mL). […] TFM-4AS-1 (a potent experimental SARM), dihydrotestosterone (DHT) and vehicles were administered by subcutaneous injection.
Six days after cell injection, animals with palpable tumors were treated once daily for 13 days with vehicles for AR-42 and TFM-4AS-1/DHT (n=9), AR-42 (10 mg/kg; TFM-4AS-1/DHT vehicle; n=10), TFM-4AS-1 (10 mg/kg; AR-42 vehicle; n=9), DHT (3 mg/kg; AR-42 vehicle; n=10), the combination of AR-42 and TFM-4AS-1 (10 mg/kg each; n=9), or the combination of AR-42 (10 mg/kg) and DHT (3 mg/kg)(n=10). Grip strength was measured and tissues collected as in the previous studies.
Forelimb grip strength was measured using Bio-GS3 Grip Strength Test Meter (Forceleader DBA Bioseb, Pinellas Park, Fla.). Each mouse was held by the base of its tail and lowered over the apparatus until its forepaws grasped the metal pull bar. The mouse was then gently pulled horizontally in a straight line away from the grip strength meter until the mouse released the bar. The force applied to the bar at the moment of release was recorded as the peak force. Five measurements were taken from each mouse, the average of which was designated as the mouse's grip strength.

serum cytokines = test: Serum cytokine panel, multiplex analysis, Study 2, tumor-free mice; settings: GTx-024 15 mg/kg p.o. qd, Day 17 sacrifice, mean ± SD
Protocol: This confirmatory study was performed exactly as Study 1 with expanded animal numbers. Tumor-free control groups were maintained at 6 animals each, whereas 10 animals were included in each of the tumor-bearing groups. […] Grip strength was measured on study days 0 (baseline) and 16. Due to rapid model progression, this study was terminated after only 12 days of treatment.
Serum cytokine panel analyses were performed by a commercial vendor (Eve Technologies, Calgary, Canada) as previously described. Serum interleukin-6 (IL-6) was measured using a commercial ELISA kit (R&D Systems, Minneapolis, Minn., USA) according to the manufacturer's instructions.

luteinizing hormone = test: Serum luteinizing hormone radioimmunoassay, Study 1; settings: Study 1, Day 18; C-26 tumor bearing mice; GTx-024 15 mg/kg
Protocol: FIG. 9A is a bar graph showing serum luteinizing hormone levels measured on Day 18. FIG. 9B is a graph showing per animal food consumption measured every two days. FIG. 9C is a plot showing spleen weights normalized to tumor mass-corrected terminal body weight. […], versus tumor-bearing vehicle-treated controls, Dunnett's multiple comparison test.
Luteinizing hormone (LH) was measured in serum by a two-site sandwich radioimmunoassay performed by the Ligand Assay and Analysis Core at the Center for Research in Reproduction, University of Virginia School of Medicine (Charlottesville, Va.). Serum was isolated by centrifugation (2000×g, 15 minutes) from whole blood samples collected from mice immediately post-mortem, and then stored at −80° C. until shipment on dry ice.

CC(C)[C@H](C(=O)Nc1ccc(C(=O)NO)cc1)c1ccccc1 [AR-42, (S)—N-hydroxy-4-(3-methyl-2-phenylbutanamido)benzamide]
terminal body weight ([1]; Study 3, Day 17, of baseline, C-26 tumor-bearing, AR-42 10 mg/kg oral, TFM-4AS-1 10 mg/kg s.c., DHT 3 mg/kg s.c.): 93.5±4.8
effect on mass of gastrocnemius or quadriceps ([1]; Study 3, monotherapy (TFM-4AS-1 10 mg/kg; AR-42 10 mg/kg)): did not significantly impact skeletal muscle masses

C[C@](O)(COc1ccc(C#N)cc1)C(=O)Nc1ccc(C#N)c(C(F)(F)F)c1 [GTx-024, (2S)-3-(4-cyanophenoxy)-N-(4-cyano-3-(trifluoromethyl)phenyl)-2-hydroxy-2-methylpropanamide]
Eotaxin, serum (serum cytokines): 669.53 ± 100.70 pg/mL
G-CSF, serum (serum cytokines): 338.39 ± 71.70 pg/mL
GM-CSF, serum (serum cytokines): 13.27 ± 4.62 pg/mL
IFNg, serum (serum cytokines): 5.93 ± 2.14 pg/mL
IL12 (p40), serum (serum cytokines): 22.48 ± 13.42 pg/mL
IL-1a, serum (serum cytokines): 60.41 ± 56.12 pg/mL
IL-1b, serum (serum cytokines): 14.65 ± 5.66 pg/mL
IL-2, serum (serum cytokines): 15.43 ± 6.56 pg/mL
IL-3, serum (serum cytokines): 1.10 ± 0.63 pg/mL
IL-4, serum (serum cytokines): 0.48 ± 0.37 pg/mL
IL-5, serum (serum cytokines): 5.71 ± 3.26 pg/mL
IL-6, serum (serum cytokines): 2.45 ± 1.31 pg/mL
IL-7, serum (serum cytokines): 11.51 ± 11.06 pg/mL
IL-9, serum (serum cytokines): 8.02 ± 6.78 pg/mL
IL-10, serum (serum cytokines): 2.38 ± 1.13 pg/mL
IL-12 (p70), serum (serum cytokines): 10.83 ± 6.12 pg/mL
IL-13, serum (serum cytokines): 29.87 ± 12.81 pg/mL
IL-15, serum (serum cytokines): 131.33 ± 70.97 pg/mL
IL-17, serum (serum cytokines): 5.01 ± 1.18 pg/mL
IP-10, serum (serum cytokines): 145.68 ± 48.83 pg/mL
KC, serum (serum cytokines): 90.02 ± 17.69 pg/mL
LIF, serum (serum cytokines): 2.50 ± 2.34 pg/mL
LIX, serum (serum cytokines): 1316.67 ± 1662.66 pg/mL
M-CSF, serum (serum cytokines): 27.23 ± 10.09 pg/mL
MCP-1, serum (serum cytokines): 54.54 ± 7.47 pg/mL
MIG, serum (serum cytokines): 89.29 ± 41.83 pg/mL
MIP-1a, serum (serum cytokines): 75.46 ± 29.41 pg/mL
MIP-1b, serum (serum cytokines): 87.69 ± 10.61 pg/mL
MIP-2, serum (serum cytokines): 136.75 ± 47.91 pg/mL
RANTES, serum (serum cytokines): 20.84 ± 10.38 pg/mL
TNFa, serum (serum cytokines): 12.15 ± 4.24 pg/mL
VEGF, serum (serum cytokines): 0.87 ± 0.32 pg/mL
serum luteinizing hormone (luteinizing hormone): suppression of serum luteinizing hormone
